Source: patent US12054498B2, “Heteroaromatic macrocyclic ether chemotherapeutic agents” (Nuvalent, Inc., priority 2020, dated 2024)

Columns and labels:
Format in all cases: cell-based
[1] = target: T1, Ba/F3 cells CD74-ROS1 wild-type (wt) (Homo sapiens, UniProt P08922); assay: Ba/F3 cell proliferation assay, CD74-ROS1 wild-type; details: 72 hours, CellTiter-Glo
T1 construct: fusion of the C-terminus of ROS1 with the N-terminus of various partner proteins; host or cells: Ba/F3 (RIKEN), retroviral pMSCV-puro; the other entry of the earlier key: CD74 (P04233, HLA class II histocompatibility antigen gamma chain)
T1 sequence (P08922 1883-2347 limits assumed): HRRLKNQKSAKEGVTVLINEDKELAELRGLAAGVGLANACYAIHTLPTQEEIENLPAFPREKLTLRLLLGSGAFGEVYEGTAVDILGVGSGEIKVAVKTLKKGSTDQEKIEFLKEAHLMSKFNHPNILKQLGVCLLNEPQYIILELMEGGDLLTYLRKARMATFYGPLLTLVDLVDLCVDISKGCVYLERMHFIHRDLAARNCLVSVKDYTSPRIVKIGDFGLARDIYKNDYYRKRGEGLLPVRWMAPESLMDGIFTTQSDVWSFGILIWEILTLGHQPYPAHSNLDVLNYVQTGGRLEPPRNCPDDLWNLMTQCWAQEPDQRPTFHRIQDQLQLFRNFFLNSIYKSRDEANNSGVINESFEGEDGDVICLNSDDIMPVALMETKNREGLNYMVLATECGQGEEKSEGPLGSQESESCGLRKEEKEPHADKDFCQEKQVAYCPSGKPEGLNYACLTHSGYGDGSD
Description: (§1) The virus was used to infect Ba/F3 cells (RIKEN) at multiplicity of infection=1 for 1 day. Infected cells were rescued in media (RPMI-1640 with 10% fetal bovine serum and 1% streptomycin and penicillin) supplemented with mouse IL-3 (10 ng/mL) for 2 days, and stable cell lines were selected by IL-3 withdrawal and puromycin (0.8 μg/mL) for 7 days. Monoclones were selected by single-cell dilution in IL-3-free medium containing puromycin (0.8 μg/mL).
(§2) Cell Proliferation Assay Stable cells were plated at 1,000 cells/well (40 μL) in a 384-well plate for 1 day.
(§3) Test compounds (40 nL) were then added in a 3-fold dilution series using the TECAN EVO200 liquid handler and incubated for 72 hours. Plates were equilibrated at room temperature for 15 minutes followed by addition of 40 μL CellTiter-Glo reagent (Promega).
(§4) Luminescence was measured on a plate reader. Half-maximal inhibitory concentration (IC50) was calculated from percent inhibition and inhibitor concentration using four-parameter logistic regression. […] (nd=not determined).

[2] = target: T2, Ba/F3 cells CD74-ROS1 G2032R (Homo sapiens, UniProt P08922, G2032R); assay: Ba/F3 cell proliferation assay, CD74-ROS1 G2032R; details: 72 hours, CellTiter-Glo
T2 construct: fusion of the C-terminus of ROS1 with the N-terminus of various partner proteins; host or cells: Ba/F3 (RIKEN), retroviral pMSCV-puro; the other entry of the earlier key: CD74 (P04233, HLA class II histocompatibility antigen gamma chain)
T2 sequence (P08922 1883-2347 G2032R limits assumed): as the sequence (P08922 1883-2347 limits assumed) above, with G150R counted along it
Description: as §1, §2, §3, §4

[3] = target: T3, Ba/F3 cells EML4-ALK wt (variant 1) (Homo sapiens, UniProt Q9UM73); assay: Ba/F3 cell proliferation assay, EML4-ALK wt (variant 1); details: 72 hours, CellTiter-Glo
T3 construct: echinoderm microtubule-associated protein-like 4 (EML4) gene and the ALK tyrosine kinase domain; host or cells: Ba/F3 (RIKEN), retroviral pMSCV-puro; the other entry of the earlier key: EML4 (Q9HC35, Echinoderm microtubule-associated protein-like 4)
T3 sequence (Q9UM73 with tags, fused parts or gaps): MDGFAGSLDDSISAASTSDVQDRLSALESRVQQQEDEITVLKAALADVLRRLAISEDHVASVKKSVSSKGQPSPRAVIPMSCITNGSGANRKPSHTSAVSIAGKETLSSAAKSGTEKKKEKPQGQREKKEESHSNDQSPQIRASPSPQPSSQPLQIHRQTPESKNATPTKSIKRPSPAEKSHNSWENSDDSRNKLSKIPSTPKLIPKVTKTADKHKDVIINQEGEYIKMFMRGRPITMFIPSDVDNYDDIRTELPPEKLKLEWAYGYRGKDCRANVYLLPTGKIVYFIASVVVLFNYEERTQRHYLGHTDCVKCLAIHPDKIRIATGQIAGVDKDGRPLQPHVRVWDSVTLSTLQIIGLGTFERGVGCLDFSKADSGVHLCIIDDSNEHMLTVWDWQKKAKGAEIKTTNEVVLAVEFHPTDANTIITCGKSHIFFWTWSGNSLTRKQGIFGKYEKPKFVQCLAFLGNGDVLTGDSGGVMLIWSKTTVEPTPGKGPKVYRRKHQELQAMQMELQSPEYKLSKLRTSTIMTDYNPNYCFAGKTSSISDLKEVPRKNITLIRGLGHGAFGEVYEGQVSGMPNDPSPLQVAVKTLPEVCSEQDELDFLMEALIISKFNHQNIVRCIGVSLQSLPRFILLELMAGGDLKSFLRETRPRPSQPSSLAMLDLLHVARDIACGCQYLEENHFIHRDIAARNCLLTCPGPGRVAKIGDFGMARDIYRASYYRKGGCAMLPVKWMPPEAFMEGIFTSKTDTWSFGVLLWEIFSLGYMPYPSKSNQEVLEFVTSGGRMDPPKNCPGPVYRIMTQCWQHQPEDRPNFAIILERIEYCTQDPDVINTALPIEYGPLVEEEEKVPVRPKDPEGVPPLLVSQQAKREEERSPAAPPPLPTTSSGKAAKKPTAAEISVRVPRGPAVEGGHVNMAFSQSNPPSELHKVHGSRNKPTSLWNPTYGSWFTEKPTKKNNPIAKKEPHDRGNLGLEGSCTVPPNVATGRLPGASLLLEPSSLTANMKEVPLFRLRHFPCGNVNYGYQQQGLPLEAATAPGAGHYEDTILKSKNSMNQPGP
From the text: (§5) Genes encoding CD74-ROS1 wild-type (wt), CD74-ROS1 G2032R, CD74-ROS1 S1986F, CD74-ROS1 L2026M, CD74-ROS1 D2033N, EML4-ALK wt (variant 1), EML4-ALK G1202R (variant 1), EML4-ALK L1196M/G1202R (variant 1), EML4-ALK G1202R/G1269A (variant 1), EML4-ALK G1202R/L1198F (variant 1), and TPM3-TRKA were synthesized at GeneRay, cloned into the retroviral construct pMSCV-puro (Biovector), and packaged into retroviral particles. The virus was used to infect Ba/F3 cells (RIKEN) at multiplicity of infection=1 for 1 day. Infected cells were rescued in media (RPMI-1640 with 10% fetal bovine serum and 1% streptomycin and penicillin) supplemented with mouse IL-3 (10 ng/mL) for 2 days, and stable cell lines were selected by IL-3 withdrawal and puromycin (0.8 μg/mL) for 7 days. Monoclones were selected by single-cell dilution in IL-3-free medium containing puromycin (0.8 μg/mL). Transformation of desired genes was confirmed by Sanger sequencing and western blot using the following antibodies: ROS1 (CST #3287), ALK (CST #3633), and pan-TRK (Abcam #76291).
as §2, §3, §4

[4] = target: T4, Ba/F3 cells EML4-ALK L1196M/G1202R (variant 1) (Homo sapiens, UniProt Q9UM73, G1202R/L1196M); assay: Ba/F3 cell proliferation assay, EML4-ALK L1196M/G1202R (variant 1); details: 72 hours, CellTiter-Glo
T4 construct: echinoderm microtubule-associated protein-like 4 (EML4) gene and the ALK tyrosine kinase domain; host or cells: Ba/F3 (RIKEN), retroviral pMSCV-puro; the other entry of the earlier key: EML4 (Q9HC35, Echinoderm microtubule-associated protein-like 4)
T4 sequence (Q9UM73 with tags, fused parts or gaps L1196M/G1202R): as the sequence (Q9UM73 with tags, fused parts or gaps) above, with L635M, G641R counted along it
From the text: as §5, §2, §3, §4

[5] = target: T5, Ba/F3 cells TPM3-TRKA (Homo sapiens, UniProt P04629); assay: Ba/F3 cell proliferation assay, TPM3-TRKA; details: 72 hours, CellTiter-Glo, read-out: TPM3-NTRK1-wt IC50
T5 construct: host or cells: Ba/F3 (RIKEN), retroviral pMSCV-puro; the other entry of the earlier key: TPM3 (P06753, Tropomyosin alpha-3 chain)
T5 sequence (P04629 510-796 limits assumed): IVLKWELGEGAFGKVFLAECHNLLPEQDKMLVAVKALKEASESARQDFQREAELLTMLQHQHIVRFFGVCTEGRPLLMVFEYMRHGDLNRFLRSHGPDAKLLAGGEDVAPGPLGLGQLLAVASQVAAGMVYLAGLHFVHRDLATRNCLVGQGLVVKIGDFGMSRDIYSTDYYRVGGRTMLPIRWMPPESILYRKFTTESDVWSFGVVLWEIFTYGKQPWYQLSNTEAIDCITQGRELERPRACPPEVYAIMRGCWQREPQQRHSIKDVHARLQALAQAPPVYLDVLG
From the text: as §5, §2, §3, §4

[6] = tested on: TPM3-NTRK1-wt IC50 / primary target IC50 (e.g. CD74-ROS1-wt); assay: TRKA selectivity in Ba/F3 cells (TRKA potency divided by primary target potency); details: for TPM3-NTRK1-wt/CD74-ROS1-G2032R selectivity ratio: TRKA potency / CD74-ROS1-G2032R potency; for TPM3-NTRK1-wt/CD74-ROS1-wt selectivity ratio: TRKA potency / CD74-ROS1-wt potency; for TPM3-NTRK1-wt/EML4-ALK-L1196M-G1202R selectivity ratio: TRKA potency / EML4-ALK-L1196M-G1202R potency; for TPM3-NTRK1-wt/EML4-ALK-wt selectivity ratio: TRKA potency / EML4-ALK-wt potency
Description: TRKA selectivity was calculated by dividing a compound's TRKA potency by its primary target potency (e.g. TPM3-NTRK1-wt IC50/CD74-ROS1-wt IC50). Compound selectivity can be interpreted by binning ratio values: bin A for very high selectivity, ratio >30-fold; bin B for high selectivity, ratio >10-fold; bin C for moderate selectivity, ratio ≥1; and bin D for low selectivity, ratio <1. […] (nd=not determined).

SMILES	IC50 [1] [nM]	IC50 [2] [nM]	IC50 [3] [nM]	IC50 [4] [nM]	IC50 [5] [nM]	TPM3-NTRK1-wt/CD74-ROS1-G2032R selectivity ratio [6]	TPM3-NTRK1-wt/CD74-ROS1-wt selectivity ratio [6]	TPM3-NTRK1-wt/EML4-ALK-L1196M-G1202R selectivity ratio [6]	TPM3-NTRK1-wt/EML4-ALK-wt selectivity ratio [6]
CCn1nc(Cl)c2c1-c1cnc(N)c(c1)O[C@H](C)c1cc(F)ccc1-c1ncnn1C2 [Example 43, (19R)-5-chloro-3-ethyl-16-fluoro-19-methyl-20-oxa-3,4,8,9,11,23-hexaazapentacyclo[19.3.1.0^2,^6.0^8,^12.0^13,^18]pentacosa-1(24),2,(6),4,9,11,13,15,17,21(25),22-decaen-22-amine]	0.1 to 50	0.1 to 50	50 to 500	50 to 500	> 500	A (bin A for very high selectivity, ratio >30-fold)	A (bin A for very high selectivity, ratio >30-fold)	C (bin C for moderate selectivity, ratio ≥1)	B (bin B for high selectivity, ratio >10-fold)
C[C@H]1Oc2cc(cnc2N)-c2c(CC3CC3)noc2Cn2ncnc2-c2ccc(F)cc21 [Example 67, (19R)-3-(cyclopropylmethyl)-16-fluoro-19-methyl-5,20-dioxa-4,8,9,11,23-pentaazapentacyclo[19.3.1.0^2,^6.0^8,^12.0^13,^18]pentacosa-1(24),2(6),3,9,11,13,15,17,21(25),22-decaen-22-amine]	0.1 to 50	0.1 to 50	0.1 to 50	50 to 500	> 500	A (bin A for very high selectivity, ratio >30-fold)	A (bin A for very high selectivity, ratio >30-fold)	C (bin C for moderate selectivity, ratio ≥1)	A (bin A for very high selectivity, ratio >30-fold)
Cc1nc2c(o1)-c1ccc(F)cc1[C@@H](C)Oc1cc(cnc1N)-c1c(c(C)nn1CC1CC1)C2 [Example 78, (19R)-3-(cyclopropylmethyl)-16-fluoro-5,10,19-trimethyl-11,20-dioxa-3 ,4,9,23-tetraazapentacyclo[19.3.1.0^2,^6.0^8,^12.0^13,^18]pentacosa-1(24),2(6),4,8(12),9,13,15,17,21(25),22-decaen-22-amine]	0.1 to 50	0.1 to 50	0.1 to 50	50 to 500	> 500	A (bin A for very high selectivity, ratio >30-fold)	A (bin A for very high selectivity, ratio >30-fold)	A (bin A for very high selectivity, ratio >30-fold)	A (bin A for very high selectivity, ratio >30-fold)
Cc1nn(CC2CC2)c2c1Cn1nc(Cl)cc1-c1ccc(F)cc1[C@@H](C)Oc1cc-2cnc1N [Example 81, (19R)-10-chloro-3-(cyclopropylmethyl)-16-fluoro-5,19-dimethyl-20-oxa-3,4,8,9,23-pentaazapentacyclo[19.3.1.0^2,^6.0^8,^12.0^13,^18]pentacosa-1(24),2(6),4,9,ll,13,15,17,21(25),22-decaen-22-amine]	0.1 to 50	0.1 to 50	50 to 500	> 500	> 500	A (bin A for very high selectivity, ratio >30-fold)	A (bin A for very high selectivity, ratio >30-fold)	C (bin C for moderate selectivity, ratio ≥1)	A (bin A for very high selectivity, ratio >30-fold)
C[C@H]1Oc2cc(cnc2N)-c2c(cnn2CC2CC2)Cc2nn(C(F)F)nc2-c2ccc(F)cc21 [Example 91, (19R)-3-(cyclopropylmethyl)-10-(difluoromethyl)-16-fluoro-19-methyl-20-oxa-3,4,9,10,11,23-hexaazapentacyclo[19,3.1.0^2,^6.0^8,^12.0^13,^18]pentacosa-1(24),2(6),4,8,11,13,15,17,21(25),22-decaen-22-amine]	0.1 to 50	0.1 to 50	0.1 to 50	0.1 to 50	50 to 500	A (bin A for very high selectivity, ratio >30-fold)	A (bin A for very high selectivity, ratio >30-fold)	B (bin B for high selectivity, ratio >10-fold)	A (bin A for very high selectivity, ratio >30-fold)
Cc1nc2c(o1)-c1ccc(F)cc1C(C)Oc1cc(cnc1N)-c1c(c(Cl)nn1CC1CC1)C2 (stereo not drawn) [Example 93]	0.1 to 50	0.1 to 50	50 to 500	50 to 500	> 500	A (bin A for very high selectivity, ratio >30-fold)	A (bin A for very high selectivity, ratio >30-fold)	B (bin B for high selectivity, ratio >10-fold)	A (bin A for very high selectivity, ratio >30-fold)
CCn1ncc2c1-c1cnc(N)c(c1)O[C@H](C)c1cc(F)ccc1-c1cc(Br)nn1C2 [Example 94, (19R)-10-bromo-3-ethyl-16-fluoro-19-methyl-20-oxa-3,4,8,9,23-pentaazapentacyclo[19.3.1.0^2,^6.0^8,^12.0^13,^18]pentacosa-1(24),2(6),4,9,11,13,15,17,21(25),22-decaen-22-amine]	0.1 to 50	0.1 to 50	0.1 to 50	50 to 500	50 to 500	A (bin A for very high selectivity, ratio >30-fold)	A (bin A for very high selectivity, ratio >30-fold)	C (bin C for moderate selectivity, ratio ≥1)	B (bin B for high selectivity, ratio >10-fold)
